“And” between values parts separate entries of the source, which are not always exact repeats. Equal values may be shown once. Inconclusive results and toxic doses are left out. Cut-off read from the data, not from the text of the source: active = T/C of 150% or more; inactive = T/C below 125%.
Tested on: L1210 leukemia ip in BDF1 mice, survival T/C
Assay: NCI In Vivo Anticancer Drug Screen. Data for tumor model L1210 Leukemia (intraperitoneal) in B6D2F1 (BDF1) mice
Settings: endpoint: mean survival time, higher = longer survival
In short: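 Ratio derived from survival: compound-dosed mice over vehicle-dosed mice, all bearing a transplantable tumor.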

[1] = dose: 100.0 mg/kg/injection, schedule: Q04DX003 (ip), vehicle: saline with Tween-80
[2] = dose: 200.0 mg/kg/injection, schedule: Q04DX003 (ip), vehicle: saline with Tween-80
[3] = dose: 400.0 mg/kg/injection, schedule: Q04DX003 (ip), vehicle: saline with Tween-80
[4] = dose: 100.0 mg/kg/injection, schedule: Q01DX009 (ip), vehicle: saline with Tween-80
[5] = dose: 200.0 mg/kg/injection, schedule: Q01DX009 (ip), vehicle: saline with Tween-80
[6] = dose: 400.0 mg/kg/injection, schedule: Q01DX009 (ip), vehicle: saline with Tween-80

Measured: T/C

CC(=O)Nc1cccc2c1C(=O)c1c(c(O)c3ccccc3c1O)C2=O
inactive: dose: 0.12 mg/kg/injection, schedule: Q01DX009 (ip), vehicle: Klucel (hydroxypropylcellulose) (HPC) 101 % of control | dose: 0.25 mg/kg/injection, schedule: Q01DX009 (ip), vehicle: Klucel (hydroxypropylcellulose) (HPC) 100 % of control | dose: 0.25 mg/kg/injection, schedule: Q04DX003 (ip), vehicle: Klucel (hydroxypropylcellulose) (HPC) 97 % of control | dose: 0.5 mg/kg/injection, schedule: Q01DX009 (ip), vehicle: Klucel (hydroxypropylcellulose) (HPC) 102 % of control | dose: 0.5 mg/kg/injection, schedule: Q04DX003 (ip), vehicle: Klucel (hydroxypropylcellulose) (HPC) 97 % of control | dose: 1.0 mg/kg/injection, schedule: Q01DX009 (ip), vehicle: Klucel (hydroxypropylcellulose) (HPC) 97 % of control | dose: 1.0 mg/kg/injection, schedule: Q04DX003 (ip), vehicle: Klucel (hydroxypropylcellulose) (HPC) 97 % of control | dose: 2.0 mg/kg/injection, schedule: Q01DX009 (ip), vehicle: Klucel (hydroxypropylcellulose) (HPC) 98 % of control | dose: 2.0 mg/kg/injection, schedule: Q04DX003 (ip), vehicle: Klucel (hydroxypropylcellulose) (HPC) 101 % of control | dose: 2.0 mg/kg/injection, schedule: Q04DX003 (ip), vehicle: water 95 % of control | dose: 3.12 mg/kg/injection, schedule: Q01DX009 (ip), vehicle: saline with Tween-80 102 % of control | dose: 4.0 mg/kg/injection, schedule: Q01DX009 (ip), vehicle: Klucel (hydroxypropylcellulose) (HPC) 105 % of control | dose: 4.0 mg/kg/injection, schedule: Q04DX003 (ip), vehicle: water 100 % of control | dose: 6.25 mg/kg/injection, schedule: Q01DX009 (ip), vehicle: saline with Tween-80 100 % of control | dose: 8.0 mg/kg/injection, schedule: Q04DX003 (ip), vehicle: water 102 % of control | dose: 12.5 mg/kg/injection, schedule: Q01DX009 (ip), vehicle: saline with Tween-80 97 % of control | dose: 12.5 mg/kg/injection, schedule: Q04DX003 (ip), vehicle: saline with Tween-80 100 % of control | dose: 16.0 mg/kg/injection, schedule: Q04DX003 (ip), vehicle: water 96 % of control and 103 % of control | dose: 25.0 mg/kg/injection, schedule: Q01DX009 (ip), vehicle: saline with Tween-80 102 % of control | dose: 25.0 mg/kg/injection, schedule: Q04DX003 (ip), vehicle: saline with Tween-80 96 % of control | dose: 32.0 mg/kg/injection, schedule: Q04DX003 (ip), vehicle: water 96 % of control | dose: 50.0 mg/kg/injection, schedule: Q01DX009 (ip), vehicle: saline with Tween-80 96 % of control | dose: 50.0 mg/kg/injection, schedule: Q04DX003 (ip), vehicle: saline with Tween-80 103 % of control | dose: 64.0 mg/kg/injection, schedule: Q04DX003 (ip), vehicle: water 97 % of control | [1] 96 % of control

CN(C)c1ccc(/C=C/c2ccc3ccccc3[n+]2C)cc1
inactive: dose: 1.5 mg/kg/injection, schedule: Q01DX009 (ip), vehicle: Klucel (hydroxypropylcellulose) (HPC) 103 % of control | dose: 3.0 mg/kg/injection, schedule: Q01DX009 (ip), vehicle: Klucel (hydroxypropylcellulose) (HPC) 97 % of control | dose: 3.12 mg/kg/injection, schedule: Q01DX009 (ip), vehicle: Klucel (hydroxypropylcellulose) (HPC) 100 % of control | dose: 6.0 mg/kg/injection, schedule: Q04DX003 (ip), vehicle: Klucel (hydroxypropylcellulose) (HPC) 107 % of control | dose: 6.25 mg/kg/injection, schedule: Q01DX009 (ip), vehicle: Klucel (hydroxypropylcellulose) (HPC) 104 % of control | dose: 12.0 mg/kg/injection, schedule: Q04DX003 (ip), vehicle: Klucel (hydroxypropylcellulose) (HPC) 107 % of control | dose: 12.5 mg/kg/injection, schedule: Q01DX009 (ip), vehicle: Klucel (hydroxypropylcellulose) (HPC) 107 % of control | dose: 25.0 mg/kg/injection, schedule: Q01DX009 (ip), vehicle: Klucel (hydroxypropylcellulose) (HPC) 96 % of control | dose: 25.0 mg/kg/injection, schedule: Q04DX003 (ip), vehicle: Klucel (hydroxypropylcellulose) (HPC) 86 % of control | dose: 100.0 mg/kg/injection, schedule: Q01DX001 (ip), vehicle: saline 112 % of control | dose: 200.0 mg/kg/injection, schedule: Q01DX001 (ip), vehicle: saline 121 % of control

O=C(CCl)Nc1ccc(O)c2ccccc12
inactive: dose: 75.0 mg/kg/injection, schedule: Q01DX001 (ip), vehicle: other 102 % of control | dose: 150.0 mg/kg/injection, schedule: Q01DX001 (ip), vehicle: other 91 % of control

Nc1ccn(CC(=O)c2cc3ccccc3[nH]2)c(=O)n1
inactive: dose: 100.0 mg/kg/injection, schedule: Q04DX002 (ip), vehicle: saline with Tween-80 101 % of control | dose: 200.0 mg/kg/injection, schedule: Q04DX002 (ip), vehicle: saline with Tween-80 97 % of control | dose: 400.0 mg/kg/injection, schedule: Q04DX002 (ip), vehicle: saline with Tween-80 108 % of control

CCCc1cc(C)cc(N=Cc2ccccc2)c1O
inactive: [1] 101 % of control | [2] 97 % of control | [3] 98 % of control

CCOC(=O)CCC(NC(=O)c1cc(Cl)c(N(C)S(=O)(=O)c2ccc(C)cc2)cc1Cl)C(=O)OCC (stereo not given)
inactive: dose: 100.0 mg/kg/injection, schedule: Q01DX001 (ip), vehicle: Klucel (hydroxypropylcellulose) (HPC) 107 % of control | [4] 94 % of control | dose: 200.0 mg/kg/injection, schedule: Q01DX001 (ip), vehicle: Klucel (hydroxypropylcellulose) (HPC) 108 % of control | [5] 97 % of control | dose: 400.0 mg/kg/injection, schedule: Q01DX001 (ip), vehicle: Klucel (hydroxypropylcellulose) (HPC) 102 % of control | [6] 94 % of control

Cc1nc2nc[nH]c(=O)c2nc1C
inactive: dose: 16.0 mg/kg/injection, schedule: Q01DX Z (ip), vehicle: methylcellulose (MC) 92 % of control | dose: 31.0 mg/kg/injection, schedule: Q01DX Z (ip), vehicle: methylcellulose (MC) 89 % of control | dose: 62.0 mg/kg/injection, schedule: Q01DX Z (ip), vehicle: methylcellulose (MC) 103 % of control | dose: 125.0 mg/kg/injection, schedule: Q01DX Z (ip), vehicle: methylcellulose (MC) 93 % of control and 97 % of control | dose: 250.0 mg/kg/injection, schedule: Q01DX Z (ip), vehicle: methylcellulose (MC) 107 % of control

Cc1c2oc3c(C)ccc(C(=O)OCCN4CCOCC4)c3nc-2c(C(=O)OCCN2CCOCC2)c(N)c1=O
inactive: dose: 100.0 mg/kg/injection, schedule: Q04DX002 (ip), vehicle: saline 98 % of control | dose: 200.0 mg/kg/injection, schedule: Q04DX002 (ip), vehicle: saline 103 % of control

CC1(C)C2CCC1(C)C(OC(=O)C1OC(O)C(O)C(O)C1O)C2 (stereo not given)
inactive: [1] 102 % of control | [2] 104 % of control | [3] 102 % of control

CCCCCCCCCCCCCC(=O)CC
inactive: dose: 90.0 mg/kg/injection, schedule: Q01DX009 (ip), vehicle: saline with Tween-80 98 % of control | [4] 92 % of control and 96 % of control | [1] 96 % of control | dose: 135.0 mg/kg/injection, schedule: Q01DX009 (ip), vehicle: saline with Tween-80 87 % of control | [5] 87 % of control and 88 % of control | [2] 96 % of control | dose: 300.0 mg/kg/injection, schedule: Q01DX009 (ip), vehicle: saline with Tween-80 92 % of control | [6] 97 % of control and 105 % of control | [3] 102 % of control

O=S(=O)(Cc1ccc(Cl)cc1Cl)Cc1ccc(Cl)cc1Cl
inactive: dose: 100.0 mg/kg/injection, schedule: Q04DX003 (ip), vehicle: Klucel (hydroxypropylcellulose) (HPC) 89 % of control | dose: 200.0 mg/kg/injection, schedule: Q04DX003 (ip), vehicle: Klucel (hydroxypropylcellulose) (HPC) 87 % of control | dose: 400.0 mg/kg/injection, schedule: Q04DX003 (ip), vehicle: Klucel (hydroxypropylcellulose) (HPC) 87 % of control

CCC(=O)OC1(c2ccccc2)CCN(CCC(O)c2ccccc2)CC1C (stereo not given)
inactive: dose: 20.0 mg/kg/injection, schedule: Q04DX003 (ip), vehicle: Klucel (hydroxypropylcellulose) (HPC) 105 % of control | dose: 40.0 mg/kg/injection, schedule: Q04DX003 (ip), vehicle: Klucel (hydroxypropylcellulose) (HPC) 105 % of control

O=C1C=C(Nc2ccc(Cl)cc2)C(=O)c2ccccc21
inactive: dose: 75.0 mg/kg/injection, schedule: Q01DX001 (ip), vehicle: carboxymethylcellulose (CMC) 93 % of control | dose: 300.0 mg/kg/injection, schedule: Q01DX001 (ip), vehicle: carboxymethylcellulose (CMC) 87 % of control

CCC(C)C(CCCN1CCCCC1)(CNC(=O)CN(CC)CC)c1cccc2ccccc12 (stereo not given)
inactive: dose: 25.0 mg/kg/injection, schedule: Q01DX009 (ip), vehicle: saline 96 % of control | dose: 50.0 mg/kg/injection, schedule: Q01DX009 (ip), vehicle: saline 100 % of control | dose: 100.0 mg/kg/injection, schedule: Q01DX009 (ip), vehicle: saline 103 % of control | dose: 100.0 mg/kg/injection, schedule: Q04DX003 (ip), vehicle: saline 103 % of control

— PubChem BioAssay AID248 (DTP/NCI, 2004)
